Experimental data published in US4178442A, “Novel cinnamoyles piperazines and homopiperazines, the method of preparing them and their application in therapeutics” (Delalande S. A., priority 1977, dated 1979).
Read-outs that look alike come from different tables or passages of the source.

Assays:
anaesthetized dog = experiment: Antiangorous activity on anaesthetized dog: consumption of oxygen in the left ventricule and cardiac effort (KATZ's index); format: in vivo; conditions: for inhibition in vivo at 2.5 mg/kg / inhibition in vivo at 2.3 mg/kg / inhibition in vivo at 0.625 mg/kg / inhibition in vivo at 1.02 mg/kg / inhibition in vivo at 0.14 mg/kg / inhibition in vivo at 1.25 mg/kg: Canis lupus familiaris, iv
Protocol: The antiangorous activity was tested on an anaesthetized dog (sodium pentobarbital 30 mg/kg/i.v.).
The consumption of oxygen in the left ventricule was estimated by the product of the coronary venous flow and the coronary arteriovenous difference in oxygen (% volume).
The coronary venous flow was measured at the coronary venous sinus by means of a modified Morawitz cannula, introduced under radioscopic control.
The cardiac effort was estimated according to KATZ's index, by the product of the average arterial pressure and the cardiac frequency.
The cardiac frequency was estimated from the electrocardiogram recorded with D2 derivation.
It should be noted that the compounds tested were injected intravenously with slow perfusion.

in vivo = conditions: iv; for LD50: read-out: Toxicity: LD50; for mortality: read-out: Toxicity (Mortality)
Excerpt: *LD50 or percentage of mortality which is given between brackets

[1] = 2.5 mg/kg i.v. slow perfusion, read-out: Diminution in consumption of O2
[2] = 2.5 mg/kg i.v. slow perfusion, read-out: Diminution in the cardiac effort (IK)
[3] = 0.625 mg/kg i.v. slow perfusion

| SMILES | Diminution in consumption of O2: in time (anaesthetized dog; 2.5 mg/kg i.v. slow perfusion) [min] | Diminution in the cardiac effort (IK): in time (anaesthetized dog; 2.5 mg/kg i.v. slow perfusion) [min] | inhibition in vivo at 2.5 mg/kg (anaesthetized dog; [1]) [%] | inhibition in vivo at 2.5 mg/kg (anaesthetized dog; [2]) [%] | LD50 (in vivo) [mg/kg] | also measured |
| --- | --- | --- | --- | --- | --- | --- |
| CNC(=O)Nc1ccc(OCC(O)CN2CCN(C(=O)/C=C/c3cc(OC)c(OC)c(OC)c3)CC2)c2c1CCCC2 (centres unmarked) [771 157] | 30 | 30 | 53 | 46 | 210 |  |
| COc1cc(/C=C/C(=O)N2CCN(CC(O)COc3ccc([N+](=O)[O-])cc3)CC2)cc(OC)c1OC (centres unmarked) [760 538] |  |  |  |  |  | Diminution in consumption of O2: in time (anaesthetized dog; 2.3 mg/kg i.v. slow perfusion): 15 min; Diminution in the cardiac effort (IK): in time (anaesthetized dog; 2.3 mg/kg i.v. slow perfusion): 30 min; inhibition in vivo at 2.3 mg/kg (anaesthetized dog; 2.3 mg/kg i.v. slow perfusion, read-out: Diminution in consumption of O2): 48%; inhibition in vivo at 2.3 mg/kg (anaesthetized dog; 2.3 mg/kg i.v. slow perfusion, read-out: Diminution in the cardiac effort (IK)): 37%; mortality (in vivo; 185 mg/kg i.v.): 10% |
| COc1cc(/C=C/C(=O)N2CCN(CC(O)COc3cccc(NC(C)=O)c3)CC2)cc(OC)c1OC (centres unmarked) [770 844] | 23 | 30 | 58 | 35 |  | mortality (in vivo; 400 mg/kg i.v.): 0% |
| CNC(=O)c1ccc(OCC(O)CN2CCN(C(=O)/C=C/c3cc(OC)c(OC)c(OC)c3)CC2)c(OC)c1 (centres unmarked) [770 855] | 60 | 60 | 60 | 45 | 260 |  |
| COc1cc(/C=C/C(=O)N2CCN(CC(O)COc3cccc4c3OCO4)CC2)cc(OC)c1OC (centres unmarked) [780 138] | 45 | 30 | 46 | 19 | 150 |  |
| COc1cc(/C=C/C(=O)N2CCN(CC(O)COc3ccc(CC(N)=O)c4c3OCCO4)CC2)cc(OC)c1OC (centres unmarked) [770 386] |  |  |  |  |  | Diminution in consumption of O2: in time (anaesthetized dog; [3]): 30 min; Diminution in the cardiac effort (IK): in time (anaesthetized dog; [3]): 30 min; inhibition in vivo at 0.625 mg/kg (anaesthetized dog; 0.625 mg/kg i.v. slow perfusion, read-out: Diminution in consumption of O2): 41%; inhibition in vivo at 0.625 mg/kg (anaesthetized dog; 0.625 mg/kg i.v. slow perfusion, read-out: Diminution in the cardiac effort (IK)): 20%; mortality (in vivo; 400 mg/kg i.v.): 20% |
| COc1cc(NC(C)=O)ccc1OCC(O)CN1CCN(C(=O)/C=C/c2cc(OC)c(OC)c(OC)c2)CC1 (centres unmarked) [770 487] | 60 |  | 47 | 14 |  | mortality (in vivo; 400 mg/kg i.v.): 30% |
| CC(=O)c1ccc(OCC(O)CN2CCN(C(=O)/C=C/c3ccc(F)cc3)CC2)c2c1OCCO2 (centres unmarked) [770 199] |  |  |  |  | 328 | Diminution in consumption of O2: in time (anaesthetized dog; 1.02 mg/kg i.v. slow perfusion): 15 min; Diminution in the cardiac effort (IK): in time (anaesthetized dog; 1.02 mg/kg i.v. slow perfusion): 15 min; inhibition in vivo at 1.02 mg/kg (anaesthetized dog; 1.02 mg/kg i.v. slow perfusion, read-out: Diminution in consumption of O2): 29%; inhibition in vivo at 1.02 mg/kg (anaesthetized dog; 1.02 mg/kg i.v. slow perfusion, read-out: Diminution in the cardiac effort (IK)): 5% |
| CCOC(=O)Cc1ccc(OCC(O)CN2CCN(C(=O)/C=C/c3cc(OC)c(OC)c(OC)c3)CC2)c2c1OCCO2 (centres unmarked) [770 312] |  |  |  |  | 259 | Diminution in consumption of O2: in time (anaesthetized dog; 0.14 mg/kg i.v. slow perfusion): 30 min; inhibition in vivo at 0.14 mg/kg (anaesthetized dog; 0.14 mg/kg i.v. slow perfusion, read-out: Diminution in consumption of O2): 30%; inhibition in vivo at 0.14 mg/kg (anaesthetized dog; 0.14 mg/kg i.v. slow perfusion, read-out: Diminution in the cardiac effort (IK)): 9% |
| COc1cc(/C=C/C(=O)N2CCN(CC(O)COc3ccc(CO)c4c3OCCO4)CC2)cc(OC)c1OC (centres unmarked) [760 705] |  |  |  |  |  | Diminution in consumption of O2: in time (anaesthetized dog; 1.25 mg/kg i.v. slow perfusion): 38 min; Diminution in the cardiac effort (IK): in time (anaesthetized dog; 1.25 mg/kg i.v. slow perfusion): 75 min; inhibition in vivo at 1.25 mg/kg (anaesthetized dog; 1.25 mg/kg i.v. slow perfusion, read-out: Diminution in consumption of O2): 51%; inhibition in vivo at 1.25 mg/kg (anaesthetized dog; 1.25 mg/kg i.v. slow perfusion, read-out: Diminution in the cardiac effort (IK)): 26%; mortality (in vivo; 400 mg/kg i.v.): 20% |
| COc1cc(/C=C/C(=O)N2CCN(CC(O)COc3cccc4c3OCCO4)CC2)cc(OC)c1OC (centres unmarked) [760 519] | 15 | 15 | 51 | 11 | 218 |  |
| COc1cc(/C=C/C(=O)N2CCN(CC(O)COc3ccc(C)c4c3OCCO4)CC2)cc(OC)c1OC (centres unmarked) [760 847] | 60 |  | 47 | 14 |  | mortality (in vivo; 169 mg/kg i.v.): 20% |
| COc1cc(/C=C/C(=O)N2CCN(CC(O)COCc3ccccc3)CC2)cc(OC)c1OC (centres unmarked) [770 276] | 23 |  | 59 |  | 248 |  |
| COc1cc(OC)cc(OCC(O)CN2CCN(C(=O)/C=C/c3cc(OC)c(OC)c(OC)c3)CC2)c1 (centres unmarked) [760 620] | 30 | 30 | 22 | 10 | 285 |  |
